Laboratory results taken from PubChem BioAssay AID2060496 (Molecular Pharmacology Branch, DTP, NCI, 2025).
One block for each compound: values may come before it.

Test system: 276233-004-R-J1-PDC complex spheroid viability
Test: Anticancer human tumor 276233-004-R-J1-PDC patient-derived colon adenocarcinoma cell line growth inhibition [GQUAD]
Details: for IC50: curve of first compound; for viability, T/C: stronger effect = lower value
From the text: DNA G-quadruplex Stabilizer Agents in Combinations in Complex Spheroids
A high-throughput screen of multi-cell type tumor spheroids was designed to identify active combinations of DNA G-quadruplex stabilizer agents and targeted small molecules. Complex spheroids include a stromal component modeled by human endothelial cells (HUVEC) and fibroblasts modeled by human mesenchymal stem cells (MSCs). The concentration ranges selected for each drug and investigational agent were based upon clinically achievable concentrations if the clinical Cmax of the agent was known.
Compounds. The drugs and investigational agents: pidnarulex (CX-5461; NSC782164), APTO-253 (NSC789042), BRACO-19 (NSC847499), peposertib (NSC802822), ceralasertib (NSC780249), elimusertib (NSC800525), camonsertib (NSC841442), AZD-1390 (NSC803789), olaparib (NSC753686), talazoparib (NSC767125), ART-558 (NSC835418), sotorasib (NSC818433), MRTX-1133 (NSC836407), SN-38 (NSC673596), topotecan (NSC609699), etoposide (NSC141540), doxorubicin (NSC123127), gemcitabine (NSC613327), 5-fluorouracil (NSC19893), paclitaxel (NSC125973), vemurafenib (NSC761431), panobinostat (NSC761190), R-306465 (JNJ-16241199; NSC773264), adavosertib (NSC754352), TP-3654 (NSC805149), carboplatin (NSC241240), KSQ-4279 (NSC840948), and staurosporine (NSC755774) were obtained from the National Cancer Institute (NCI) Developmental Therapeutics Program Chemical Repository (34). The FDA-approved anticancer drug set is available from the NCI Developmental Therapeutics Program. […] The stock solutions were prepared in dimethyl sulfoxide (DMSO, Sigma-Aldrich, St. Louis, MO, cat. D2650) at 800-fold the tested concentration and stored at -70 degrees C prior to their use. All drugs and investigational agents were tested over a range starting from a high concentration at or near the clinical Cmax and decreasing in half-log increments. If the clinical Cmax for an agent had not been determined, the highest concentration tested was 10 microM.
2.3 Cell Culture. All cells were maintained in an incubator at 37 degrees C and 5% CO2 with 95% humidity. The PDC lines were cultured according to standard operating procedures established by the NCI PDMR. All PDCs were thawed and cultured in Matrigel-coated flasks prepared with a working solution of 1X Ham's F-12 nutrient mix, without supplementation (Invitrogen, cat. 11765054), 100 U/mL penicillin-streptomycin (Invitrogen, cat. 15140122), and 2.5% Matrigel (Corning Inc., cat. 354248) for the first three passages. The 857933-349-R-J2-PDC line was cultured in 6C/Colon 1B media, which includes advanced DMEM/F-12 (Thermo Fisher Scientific, cat. 12634028), 10 mM HEPES (Thermo Fisher Scientific, cat. 15630080), 1X GlutaMAX supplement (Thermo Fisher Scientific, cat. 35050061), 0.1 mg/mL primocin (InvivoGen, cat. ant-pm-2), 10% defined fetal bovine serum, heat inactivated (HyClone Laboratories Inc., cat. SH30070.03HI), 50% L-WRN conditioned media (ATCC, cat. CRL-3276), 1.25 mM N-Acetyl-L-cysteine (Sigma-Aldrich, cat. A9165), 10 mM nicotinamide (Sigma-Aldrich, cat. N0636), 1X B-27 supplement (Thermo Fisher Scientific, cat. 17504044), 1X N-2 supplement (Thermo Fisher Scientific, cat. 17502048), 10 microM Y-27632 dihydrochloride (Tocris Bioscience, cat. 1254), and 50 ng/mL human EGF recombinant protein (Thermo Fisher Scientific, cat. PHG0311). The 485176-168-R4-J1-PDC line was cultured in Panc media, which includes all 6C/Colon 1B media components plus 100 ng/mL human FGF-10 (Thermo Fisher Scientific, cat. 100-26), 500 nM SB-431542 (Selleckchem, cat. S1067), and gastrin (Tocris, cat. 3006).
[…]

[1] = second compound 0.0316 µM, first compound 0.0316 µM
[2] = second compound 0.0316 µM, first compound 0.316 µM
[3] = second compound 0.1 µM, first compound 0.0316 µM
[4] = second compound 0.1 µM, first compound 0.316 µM
[5] = second compound 0.316 µM, first compound 0.0316 µM
[6] = second compound 0.316 µM, first compound 0.316 µM
[7] = second compound 1 µM, first compound 0.0316 µM
[8] = second compound 1 µM, first compound 0.316 µM
[9] = second compound 3.16 µM, first compound 0.0316 µM
[10] = second compound 3.16 µM, first compound 0.316 µM
[11] = second compound 10 µM, first compound 0.0316 µM
[12] = second compound 10 µM, first compound 0.316 µM
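Note: spheroids exposed to drugs for seven days.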
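Throughout, for viability, T/C: 100% = DMSO vehicle control viability.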

Structure (SMILES): CC[C@@]1(O)C(=O)OCc2c1cc1n(c2=O)Cc2cc3c(CN(C)C)c(O)ccc3nc2-1 + Cc1[nH]c2ccc(F)cc2c1-c1nc2c3cccnc3c3ncccc3c2[nH]1
IC50 (second compound 0.0316 µM): > 0.316 µM
IC50 (second compound 0.1 µM): > 0.316 µM
IC50 (second compound 0.316 µM): > 0.316 µM
IC50 (second compound 1 µM): > 0.316 µM
IC50 (second compound 3.16 µM): < 0.000999 µM
IC50 (second compound 10 µM): < 0.000999 µM
viability, T/C (second compound 0.0316 µM, first compound 0.000999 µM): 83.1%
viability, T/C (second compound 0.0316 µM, first compound 0.00316 µM): 76.6%
viability, T/C (second compound 0.0316 µM, first compound 0.00999 µM): 80.8%
viability, T/C [1]: 89.2%
viability, T/C (second compound 0.0316 µM, first compound 0.0999 µM): 92%
viability, T/C [2]: 91.5%
viability, T/C (second compound 0.1 µM, first compound 0.000999 µM): 93.4%
viability, T/C (second compound 0.1 µM, first compound 0.00316 µM): 102%
viability, T/C (second compound 0.1 µM, first compound 0.00999 µM): 102%
viability, T/C [3]: 87%
viability, T/C (second compound 0.1 µM, first compound 0.0999 µM): 88.2%
viability, T/C [4]: 96.9%
viability, T/C (second compound 0.316 µM, first compound 0.000999 µM): 78.7%
viability, T/C (second compound 0.316 µM, first compound 0.00316 µM): 88.4%
viability, T/C (second compound 0.316 µM, first compound 0.00999 µM): 82.7%
viability, T/C [5]: 89.6%
viability, T/C (second compound 0.316 µM, first compound 0.0999 µM): 99.6%
viability, T/C [6]: 82.8%
viability, T/C (second compound 1 µM, first compound 0.000999 µM): 71.2%
viability, T/C (second compound 1 µM, first compound 0.00316 µM): 78.4%
viability, T/C (second compound 1 µM, first compound 0.00999 µM): 76.2%
viability, T/C [7]: 67.9%
viability, T/C (second compound 1 µM, first compound 0.0999 µM): 58.2%
viability, T/C [8]: 77.7%
viability, T/C (second compound 3.16 µM, first compound 0.000999 µM): 48.4%
viability, T/C (second compound 3.16 µM, first compound 0.00316 µM): 54.4%
viability, T/C (second compound 3.16 µM, first compound 0.00999 µM): 48.5%
viability, T/C [9]: 51.6%
viability, T/C (second compound 3.16 µM, first compound 0.0999 µM): 61.9%
viability, T/C [10]: 58.3%
viability, T/C (second compound 10 µM, first compound 0.000999 µM): 46%
viability, T/C (second compound 10 µM, first compound 0.00316 µM): 40.5%
viability, T/C (second compound 10 µM, first compound 0.00999 µM): 53.9%
viability, T/C [11]: 58%
viability, T/C (second compound 10 µM, first compound 0.0999 µM): 50.7%
viability, T/C [12]: 46.7%

IC50 (second compound 0.0316 µM): > 10 µM
IC50 (second compound 0.1 µM): > 10 µM
IC50 (second compound 0.316 µM): > 10 µM
IC50 (second compound 1 µM): > 10 µM
IC50 (second compound 3.16 µM): > 10 µM
IC50 (second compound 10 µM): > 10 µM
Structure (SMILES): CC(=O)O[C@H]1C(=O)[C@@]2(C)[C@H]([C@H](OC(=O)c3ccccc3)[C@]3(O)C[C@H](OC(=O)[C@H](O)[C@@H](NC(=O)c4ccccc4)c4ccccc4)C(C)=C1C3(C)C)[C@]1(OC(C)=O)CO[C@@H]1C[C@@H]2O + Cc1cnc(CNC(=O)c2c(=O)c3ccc(N4CCCN(C)CC4)nc3n3c2sc2ccccc23)cn1
viability, T/C [1]: 72.5%
viability, T/C (second compound 0.0316 µM, first compound 0.1 µM): 80.5%
viability, T/C [2]: 90.3%
viability, T/C (second compound 0.0316 µM, first compound 1 µM): 81.1%
viability, T/C (second compound 0.0316 µM, first compound 3.16 µM): 84.1%
viability, T/C (second compound 0.0316 µM, first compound 10 µM): 95.8%
viability, T/C [3]: 80.1%
viability, T/C (second compound 0.1 µM, first compound 0.1 µM): 93.4%
viability, T/C [4]: 80.8%
viability, T/C (second compound 0.1 µM, first compound 1 µM): 93.6%
viability, T/C (second compound 0.1 µM, first compound 3.16 µM): 86.6%
viability, T/C (second compound 0.1 µM, first compound 10 µM): 84.5%
viability, T/C [5]: 97.5%
viability, T/C (second compound 0.316 µM, first compound 0.1 µM): 94%
viability, T/C [6]: 89.9%
viability, T/C (second compound 0.316 µM, first compound 1 µM): 91%
viability, T/C (second compound 0.316 µM, first compound 3.16 µM): 87.7%
viability, T/C (second compound 0.316 µM, first compound 10 µM): 95.6%
viability, T/C [7]: 76%
viability, T/C (second compound 1 µM, first compound 0.1 µM): 84.8%
viability, T/C [8]: 88.6%
viability, T/C (second compound 1 µM, first compound 1 µM): 89.5%
viability, T/C (second compound 1 µM, first compound 3.16 µM): 87%
viability, T/C (second compound 1 µM, first compound 10 µM): 75.8%
viability, T/C [9]: 91.5%
viability, T/C (second compound 3.16 µM, first compound 0.1 µM): 72.9%
viability, T/C [10]: 80.8%
viability, T/C (second compound 3.16 µM, first compound 1 µM): 71.1%
viability, T/C (second compound 3.16 µM, first compound 3.16 µM): 80.3%
viability, T/C (second compound 3.16 µM, first compound 10 µM): 83.8%
viability, T/C [11]: 59.9%
viability, T/C (second compound 10 µM, first compound 0.1 µM): 62.5%
viability, T/C [12]: 64.9%
viability, T/C (second compound 10 µM, first compound 1 µM): 53.8%
viability, T/C (second compound 10 µM, first compound 3.16 µM): 51.4%
viability, T/C (second compound 10 µM, first compound 10 µM): 61.4%
